Results reported in US20100004250A1, “PTERIDINE DERIVATIVES AS POLO-LIKE KINASE INHIBITORS USEFUL IN THE TREATMENT OF CANCER” (CHROMA THERAPEUTICS LTD., priority 2006, published 2010).

Tests used:
[1] = target: T1, PLK1 (Homo sapiens, UniProt P53350); test: PLK1 enzyme assay (Z'-LYTE, Invitrogen); assay type: biochemical; conditions: ATP at or close to Km, 60 minute kinase reaction; read-out: Inhibitor Activity vs PLK1
T1 construct: purchased Invitrogen (Paisley, UK), assay service
Experimental: The ability of compounds to inhibit PLK-1 kinase activity was measured in an assay performed by Invitrogen (Paisley, UK). The Z′-LYTE™ biochemical assay employs a fluorescence-based, coupled-enzyme format and is based on the differential sensitivity of phosphorylated and non-phosphorylated peptides to proteolytic cleavage. The peptide substrate is labelled with two fluorophores—one at each end—that make up a FRET pair. In the primary reaction, the kinase transfers the gamma-phosphate of ATP to a single serine or threonine residue in a synthetic FRET-peptide. In the secondary reaction, a site-specific protease recognizes and cleaves non-phosphorylated FRET-peptides. Phosphorylation of FRET-peptides suppresses cleavage by the Development Reagent. Cleavage disrupts FRET between the donor (i.e., coumarin) and acceptor (i.e., fluorescein) fluorophores on the FRET-peptide, whereas uncleaved, phosphorylated FRET-peptides maintain FRET. A […] method, which calculates the ratio (the Emission Ratio) of donor emission to acceptor emission after excitation of the donor fluorophore at 400 nm, is used to quantitate reaction progress.
The final 10 μl Kinase Reaction consists of 2.8-25.3 ng PLK1, 2 μM Ser/Thr 16 Peptide substrate and ATP in 50 mM HEPES pH 7.5, 0.01% BRIJ-35, 10 mM MgCl2, 1 mM EGTA. The assay is performed at an ATP concentration at, or close to, the Km. After the 60 minute Kinase Reaction incubation at room temperature, 5 μl of a 1:8 dilution of Development Reagent is added. The assay plate is incubated for a further 60 minutes at room temperature and read on a fluorescence plate reader.
Duplicate data points are generated from a ⅓ log dilution series of a stock solution of test compound in DMSO. Nine dilutions steps are made from a top concentration of 10 μM, and a “no compound” blank is included. Data is collected and analysed using XLfit software from IDBS. The dose response curve is curve fitted to model number 205 (sigmoidal dose-response model). From the curve generated, the concentration giving 50% inhibition is determined and reported.

[2] = test system: HCT 116 cell line; test: Cell inhibition assay (WST-1 proliferation); assay type: cell-based; conditions: Homo sapiens, 120 hrs incubation, read-out: Inhibitor Activity vs HCT 116 cell line
Experimental: Cells were seeded in 96W tissue culture plates (1 well=30 mm^2) at a density of 500 cells per well in 50 μl of the appropriate culture medium (see below). 24 hrs later 50 μl of the compound prepared in the same medium was added as 4 fold dilutions to give final concentrations in the range 0.15 nM-2500 nM (n=6 for each concentration). The plates were then incubated at 37° C., 5% CO2 for 120 hrs. Cell proliferation was assessed using WST-1 (a metabolic indicator dye, Roche Cat no. 1 644 807) according to the manufacturers instructions. The results were calculated as percentage of vehicle response and IC50 values represent the concentration of compound that inhibited the vehicle response by 50%.
HCT-116 Culture Medium—Dulbeccos MEM (Sigma D6546) plus 10% heat inactivated fetal calf serum (Hyclone SH30071 Thermo Fischer Scientific) containing 2 mM Glutamine (Sigma cat no G-7513) and 50 U/ml Penicillin and Streptomycin Sulphate (Sigma Cat no P-0781).

T1 sequence (P53350 whole entry): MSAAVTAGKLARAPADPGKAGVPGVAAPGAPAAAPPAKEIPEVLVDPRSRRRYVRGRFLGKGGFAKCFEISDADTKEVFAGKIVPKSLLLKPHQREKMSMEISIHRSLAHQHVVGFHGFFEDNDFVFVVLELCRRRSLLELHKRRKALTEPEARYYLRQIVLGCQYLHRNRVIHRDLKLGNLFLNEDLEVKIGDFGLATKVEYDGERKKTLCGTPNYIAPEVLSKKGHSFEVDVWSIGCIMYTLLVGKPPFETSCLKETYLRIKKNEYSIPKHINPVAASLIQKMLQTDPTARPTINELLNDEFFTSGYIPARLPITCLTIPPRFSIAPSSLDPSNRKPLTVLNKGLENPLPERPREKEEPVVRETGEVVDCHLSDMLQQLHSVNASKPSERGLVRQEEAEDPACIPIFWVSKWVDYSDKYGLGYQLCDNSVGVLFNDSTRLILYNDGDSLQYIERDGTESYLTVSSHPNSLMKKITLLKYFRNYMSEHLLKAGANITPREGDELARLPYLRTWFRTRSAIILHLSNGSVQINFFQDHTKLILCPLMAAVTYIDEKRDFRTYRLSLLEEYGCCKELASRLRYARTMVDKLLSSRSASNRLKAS

| IC50 [1] [µM] | IC50 [2] [µM] | SMILES |
| --- | --- | --- |
| 0.1 to 0.5 | 0.1 to 0.5 | CC[C@@H]1C(=O)N(C)c2cnc(Nc3ccc(C(=O)NCCCC(=O)N[C@@H](CC(C)C)C(=O)OC4CCCC4)cc3OC)nc2N1C1CCCC1 [Example 13, Cyclopentyl N-{4-[(4-{[(7R)-8-cyclopentyl-7-ethyl-5-methyl-6-oxo-5,6,7,8-tetrahydropteridin-2-yl]amino}-3-methoxybenzoyl)amino]butanoyl}-L-leucinate] |
| < 0.1 | < 0.1 | CC[C@@H]1C(=O)N(C)c2cnc(Nc3ccc(C(=O)NC4CCN(CCOC(=O)N[C@@H](CC(C)C)C(=O)OC5CCCC5)CC4)cc3OC)nc2N1C1CCCC1 [Example 11, Cyclopentyl N-[(2-{4-[(4-{[(7R)-8-cyclopentyl-7-ethyl-5-methyl-6-oxo-5,6,7,8-tetrahydropteridin-2-yl]amino}-3-methoxybenzoyl)amino]piperidin-1-yl}ethoxy)carbonyl]-L-leucinate] |
| < 0.1 | < 0.1 | CC[C@@H]1C(=O)N(C)c2cnc(Nc3ccc(C(=O)NC4CCN(CCCC(=O)N[C@@H](CC(C)C)C(=O)OC5CCCC5)CC4)cc3OC)nc2N1C1CCCC1 [Example 1, Cyclopentyl N-(4-{4-[(4-{[(7R)-8-cyclopentyl-7-ethyl-5-methyl-6-oxo-5,6,7,8-tetrahydropteridin-2-yl]amino}-3-methoxybenzoyl)amino]piperidin-1-yl}butanoyl)-L-leucinate] |
| 0.1 to 0.5 | < 0.1 | CC[C@@H]1C(=O)N(C)c2cnc(Nc3ccc(C(=O)NC4CCN(CCNC(=O)N[C@H](C(=O)OC5CCCC5)C5CCCCC5)CC4)cc3OC)nc2N1C1CCCC1 [Example 10, Cyclopentyl (2S)-cyclohexyl{[(2-{4-[(4-{[(7R)-8-cyclopentyl-7-ethyl-5-methyl-6-oxo-5,6,7,8-tetrahydropteridin-2-yl]amino}-3-methoxybenzoyl)amino]piperidin-1-yl}ethyl)carbamoyl]amino}acetate] |
| 0.1 to 0.5 | > 0.5 | CC[C@@H]1C(=O)N(C)c2cnc(Nc3c(F)cc(/C=C/CCCC(=O)N[C@@H](CC(C)C)C(=O)OC4CCCC4)cc3F)nc2N1C1CCCC1 [Example 16, Cyclopentyl N-[(5E)-6-(4-{[(7R)-8-cyclopentyl-7-ethyl-5-methyl-6-oxo-5,6,7,8-tetrahydropteridin-2-yl]amino}-3,5-difluorophenyl)hex-5-enoyl]-L-leucinate] |
| < 0.1 | < 0.1 | CC[C@@H]1C(=O)N(C)c2cnc(Nc3ccc(C(=O)NC4CCN(CCNC(=O)N[C@H](C(=O)OC5CCCC5)c5ccccc5)CC4)cc3OC)nc2N1C1CCCC1 [Example 9, Cyclopentyl (2S)-{[(2-{4-[(4-{[(7R)-8-cyclopentyl-7-ethyl-5-methyl-6-oxo-5,6,7,8-tetrahydropteridin-2-yl]amino}-3-methoxybenzoyl)amino]piperidin-1-yl}ethyl)carbamoyl]amino}(phenyl)acetate] |
| 0.1 to 0.5 | > 0.5 | CC[C@@H]1C(=O)N(C)c2cnc(Nc3ccc(/C=C/CCCC(=O)N[C@@H](CC(C)C)C(=O)OC4CCCC4)cc3F)nc2N1C1CCCC1 [Example 14, Cyclopentyl N-[(5E)-6-(4-{[(7R)-8-cyclopentyl-7-ethyl-5-methyl-6-oxo-5,6,7,8-tetrahydropteridin-2-yl]amino}-3-fluorophenyl)hex-5-enoyl]-L-leucinate] |
| 0.1 to 0.5 | < 0.1 | CC[C@@H]1C(=O)N(C)c2cnc(Nc3ccc(C(=O)Nc4ccc(CCCC(=O)N[C@@H](CC(C)C)C(=O)OC5CCCC5)cc4)cc3OC)nc2N1C1CCCC1 [Example 12, Cyclopentyl N-(4-{4-[(4-{[(7R)-8-cyclopentyl-7-ethyl-5-methyl-6-oxo-5,6,7,8-tetrahydropteridin-2-yl]amino}-3-methoxybenzoyl)amino]phenyl}butanoyl)-L-leucinate] |
| < 0.1 | < 0.1 | CC[C@@H]1C(=O)N(C)c2cnc(Nc3ccc(C(=O)NC4CCN(CCNC(=O)N[C@@H](CC(C)C)C(=O)OC5CCCC5)CC4)cc3OC)nc2N1C1CCCC1 [Example 8, Cyclopentyl N-[(2-{4-[(4-{[(7R)-8-cyclopentyl-7-ethyl-5-methyl-6-oxo-5,6,7,8-tetrahydropteridin-2-yl]amino}-3-methoxybenzoyl)amino]piperidin-1-yl}ethyl)carbamoyl]-L-leucinate] |
| > 0.5 | > 0.5 | CC[C@@H]1C(=O)N(C)c2cnc(Nc3ccc(CCCCCC(=O)N[C@@H](CC(C)C)C(=O)OC4CCCC4)cc3F)nc2N1C1CCCC1 [Example 15, Cyclopentyl N-[6-(4-{[(7R)-8-cyclopentyl-7-ethyl-5-methyl-6-oxo-5,6,7,8-tetrahydropteridin-2-yl]amino}-3-fluorophenyl)hexanoyl]-L-leucinate] |
| < 0.1 | < 0.1 | CC[C@@H]1C(=O)N(C)c2cnc(Nc3ccc(C(=O)NC4CCN(CCCCC(=O)N[C@@H](CC(C)C)C(=O)OC5CCCC5)CC4)cc3OC)nc2N1C1CCCC1 [Example 6, Cyclopentyl N-(5-{4-[(4-{[(7R)-8-cyclopentyl-7-ethyl-5-methyl-6-oxo-5,6,7,8-tetrahydropteridin-2-yl]amino}-3-methoxybenzoyl)amino]piperidin-1-yl}pentanoyl)-L-leucinate] |
| < 0.1 | < 0.1 | CC[C@@H]1C(=O)N(C)c2cnc(Nc3ccc(C(=O)NC4CCN(CCCC(=O)N[C@H](CC(C)C)C(=O)OC5CCCC5)CC4)cc3OC)nc2N1C1CCCC1 [Example 2, Cyclopentyl N-(4-{4-[(4-{[(7R)-8-cyclopentyl-7-ethyl-5-methyl-6-oxo-5,6,7,8-tetrahydropteridin-2-yl]amino}-3-methoxybenzoyl)amino]piperidin-1-yl}butanoyl)-D-leucinate] |
| < 0.1 | < 0.1 | CC[C@@H]1C(=O)N(C)c2cnc(Nc3ccc(C(=O)NC4CCN(CCCC(=O)N[C@H](C(=O)OC5CCCC5)c5ccccc5)CC4)cc3OC)nc2N1C1CCCC1 [Example 3, Cyclopentyl (2S)-[(4-{4-[(4-{[(7R)-8-cyclopentyl-7-ethyl-5-methyl-6-oxo-5,6,7,8-tetrahydropteridin-2-yl]amino}-3-methoxybenzoyl)amino]piperidin-1-yl}butanoyl)amino](Phenyl)acetate] |
